# Measurements: patent US7928138B2, “Marine actinomycete taxon for drug and fermentation product discovery” (Regents of the University of California, priority 2000, dated 2011)
# System: HCT-116 human colon carcinoma cell line
# Assay: Cytotoxicity against human colon carcinoma cell line by MTS assay
# Assay type: cell-based
# Conditions: pure compound
# Description: Assay for the inhibition of growth of colon carcinoma cells and of ovarian cancer cells in vitro. The cytotoxicity of extracts from cells or culture media were assessed in vitro against the human colon carcinoma cell line HCT116 and the human ovarian carcinoma cell line A2780 by MTS assay. Cells were plated at 4,000 cells per well in 96 well microliter plates and, after 24 hours, the extract (dissolved in DMSO or other appropriate solvent) was added and serially diluted. The cells were incubated with the compound at 37° C. for 72 hours, then the tetrazolium dye MTS was added to a final concentration of 333 μg/ml and the electron coupling agent phenazine methosulfate was added to a final concentration of 25 μM. Once reduced, MTS is converted into a […] blue crystal formazan and that was read at an absorbance at 490 nm with a microplate reader. As dead cells are unable to reduce MTS, the amount of formazan is correlated to the number of viable cells. The IC50, the drug concentration required to inhibit proliferation of 50% of the cells, was used as a measure of efficacy.
structure (smiles),measurement,value
C[C@@]12OC(=O)[C@]1([C@@H](O)[C@@H]1C=CCCC1)NC(=O)[C@@H]2CCCl [salinosporamide A],IC50 against the HCT-116 human colon carcinoma cell line,10 ng/mL
